Reference: a melting point compilation (Tetko et al.)

SMILES	melting point
CCOC(=O)c1ccc(C(=O)O)nc1C	88 to 90 °C
O=S(=O)(c1ccc(S)nc1)N1CCCCC1	218 to 221 °C
Nc1nc(Cl)c(Cl)cc1[N+](=O)[O-]	126 to 128 °C
Brc1ccc(OCCc2ccccc2)cc1	49 to 51 °C
CCN(CC)S(=O)(=O)c1ccc2nc(CCl)[nH]c2c1	93 to 95 °C
O=C(O)c1c(F)ccc([N+](=O)[O-])c1F	92 to 96 °C
O=C(c1ccccc1)c1ccc(Br)cc1F	76 to 78 °C
CCOC(=O)CN(CCC#N)c1ccc(OC)cc1	61 to 63 °C
N#CC1(NC(=O)CCl)CCCCC1	130 to 132 °C
CCCS(=O)(=O)NC(C(=O)OCC)C(=O)OCC	40 to 42 °C
CCOC(=O)CS(=O)(=O)Cc1ccccc1	49 to 51 °C
COCc1cccc(CNC(=O)CCl)c1	41 to 43 °C
CN(C)C(N)=NC(=N)N	223 to 226 °C
NNC(=O)c1cc(Br)ccc1O	222 to 224 °C
O=C(CCl)N1CCN(S(=O)(=O)c2c(F)cccc2F)CC1	119 to 121 °C
CN(C)CC(C)(C)CNC(N)=S	121 to 123 °C
O=Cc1cnc(-c2ccsc2)s1	107 to 109 °C
O=c1ccnc(-c2cccc(O)c2)[nH]1	229 to 231 °C
O=C(O)CCc1nc(-c2ccccn2)no1	206 to 208 °C
O=S(=O)(Nc1ccccc1Br)N1CCCC1	69 to 71 °C

SMILES	melting point
CC(C)(C)C(N)c1nc(-c2nnc[nH]2)no1 (stereo not drawn)	169 to 171 °C
Cc1cc(Cl)cc2nc(S)oc12	253 to 255 °C
NNC(=O)C1CCCC1	112 to 114 °C
NNC(=O)CO	90 to 92 °C
CC1(c2ccc(Cl)s2)NC(=O)NC1=O (stereo not drawn)	183 to 185 °C
O=C(O)C1CC(=O)N(c2ccccc2Br)C1 (stereo not drawn)	177 to 179 °C
O=C(O)CNS(=O)(=O)c1ccc(Cl)c([N+](=O)[O-])c1	150 to 152 °C
N#Cc1cc(C(F)(F)F)ccc1-n1cncn1	114 to 116 °C
Nc1ccccc1OCC(=O)N1CCOCC1	111 to 113 °C
COc1ccc(I)cc1F	32 to 34 °C
CC(C)Oc1cccc(C(O)CN)c1 (stereo not drawn)	52 to 54 °C
Cc1nc2c(c(C)nn2C)c(C)c1CC(=O)O	245 to 247 °C
CCOC(=O)c1c(C)[nH]c(C(=O)C(C)Cl)c1C (stereo not drawn)	148 to 150 °C
CS(=O)(=O)NCC1CCCNC1 (stereo not drawn)	130 to 132 °C
O=C(O)c1cc(-c2cc(F)ccc2F)no1	187 to 189 °C
BrCc1cn(-c2ccccc2)nn1	111 to 113 °C
NC1CC(=O)N(c2ccc(Oc3ccccc3)cc2)C1 (stereo not drawn)	112 to 114 °C
COC(=O)c1cc(C)cc([N+](=O)[O-])c1N	106 to 108 °C
O=C1CCC2(CCN1)OCCO2	101 to 103 °C
N#CCC(=O)NCC1CCCO1 (stereo not drawn)	90 to 94 °C

SMILES	melting point
CCCN1CCCC1C(=O)O (stereo not drawn)	83 to 85 °C
Nc1cc([N+](=O)[O-])ccc1OC(F)F	75 to 77 °C
O=S(=O)(Cl)C=Cc1ccc(Br)cc1	149 to 151 °C
O=C(O)c1cc(C2CC2)nc2onc(-c3ccco3)c12	211 to 213 °C
Cc1ccc(SC2=C(C(=O)O)CCCC2)cc1	199 to 201 °C
COc1cc(OC)cc(C(N)c2nccn2C)c1 (stereo not drawn)	99 to 101 °C
O=C1CN=C(S)N1C1CCCCCC1	72 to 74 °C
Cc1nc(S)c(C(N)=O)c(C)c1C	294 to 296 °C
CCOc1cc(C(=O)O)ccc1OCC(=O)N1CCCCC1	129 to 131 °C
NS(=O)(=O)c1cccc(F)c1	129 to 131 °C
c1ccc2sc(C3CCNCC3)nc2c1	127 to 129 °C
O=C1Nc2c(ccc(Cl)c2F)C1=O	200 to 202 °C
CC(C)(C)OC(=O)N1CCCC(COCC(=O)O)C1 (stereo not drawn)	74 to 76 °C
COc1ccc(CN2CCNCC2)cc1OC	27 to 40 °C
COc1cccc(C(=O)NCC(=O)O)c1	78 to 80 °C
Cn1cnnc1Sc1ccc(C=O)cc1[N+](=O)[O-]	171 to 173 °C
O=C(CO)N1CCNCC1	69 to 71 °C
Cc1cccc(Nc2nnc(SCC(=O)O)s2)c1C	159 to 161 °C
CN(C)C(=O)Cn1cnc(N)n1	135 to 137 °C

More lines, now with the values ahead:

melting point	SMILES
54 to 56 °C	CN(C)S(=O)(=O)c1ccc(CCl)o1
167 to 169 °C	Oc1nnc(S)n1CCc1ccccc1
159 to 161 °C	O=C(O)C1CC(=O)N(CCN2CCOCC2)C1 (stereo not drawn)
306 to 308 °C	Cc1ccc(/C=C/c2cc(C(=O)O)c3cc(Br)ccc3n2)cc1
110 to 112 °C	NC1CCN(c2ccc(F)c(Cl)c2)C1=O (stereo not drawn)
262 to 264 °C	COC(=O)c1nc2n(n1)-c1ccccc1S(=O)(=O)N2
141 to 143 °C	NCc1ccc(C(N)=O)cc1
110 to 112 °C	Cc1ccc(-c2csc(NCCCC(=O)O)n2)s1
154 to 156 °C	OCc1cccc2nccn12
183 to 185 °C	O=C(O)c1cc(S(=O)(=O)N2CCOCC2)ccc1I
147 to 149 °C	O=C(O)c1ccc(-c2ccco2)o1
171 to 173 °C	CC(C)Cn1nc(C(=O)O)c2ccccc2c1=O
261 to 263 °C	CC(C)(C)OC(=O)Nc1cnc(C(=O)O)cn1
116 to 118 °C	CN1CCCC(N(C)C(=O)c2ccc(N)cc2)C1 (stereo not drawn)
71 to 73 °C	OCC1NCCc2ccccc21 (stereo not drawn)
149 to 151 °C	Cc1cc(N)ccc1NC(=O)c1cccc(S(C)(=O)=O)c1
200 to 202 °C	CC1CCC(N)(C(=O)O)CC1 (stereo not drawn)
203 to 205 °C	CN(C)c1nc2cc(C#N)ccc2o1
169 to 171 °C	COc1cc(Cl)ccc1S(N)(=O)=O
256 to 258 °C	O=C1Nc2cc(F)c(Cl)cc2C1=O
201 to 203 °C	O=C(O)C1CC(O)CN1C(=O)Cc1ccccc1F (stereo not drawn)
192 to 194 °C	Cc1ccc(C)c(-n2ccnc2S)c1

melting point	SMILES
82 to 84 °C	COc1ccc(C2C(CO)CC(=O)N2C)cc1 (stereo not drawn)
83 to 85 °C	O=C1c2ccccc2C(=O)N1CC1(CO)CCCC1
186 to 188 °C	Sc1nnc(N2CCOCC2)n1CC1CCCO1 (stereo not drawn)
169 to 171 °C	NC(=O)CN(Cc1ccccc1)c1cccc(N)c1
125 to 127 °C	Oc1cccc(CNC2CC2)c1
257 to 259 °C	Nc1cc([N+](=O)[O-])ccc1C(=O)O
55 to 57 °C	Clc1cnc(Cl)nc1
132 to 134 °C	O=C(CCl)Nc1c(F)cc(F)cc1Br
64 to 66 °C	CC(=O)c1cccc(-c2ccncc2)c1
149 to 151 °C	CC1CCC(Nc2ccccn2)CC1 (stereo not drawn)
49 to 51 °C	COC(=O)c1nccc(Cl)c1F
150 to 152 °C	Cc1nc(C(=O)O)ccc1C#N
148 to 150 °C	O=C(CCl)NC(=O)NCc1cccs1
195 to 197 °C	CCc1ccc(N(C(C)=O)c2nc(CCl)cs2)cc1
171 to 173 °C	CCNc1nc(C)c(C(=O)O)s1
217 to 219 °C	O=C(CC(=O)Nc1ccc(F)cc1)Nc1ccc(F)cc1
64 to 66 °C	NCc1ccc(-c2ccncc2)cc1
87 to 89 °C	O=C(O)c1ccccc1OCc1cccs1
92 to 94 °C	N#CC1=C(N)CCCC1
62 to 64 °C	Nc1ccc(Oc2ccccn2)cc1
234 to 236 °C	Cc1nn(-c2ccccc2)c2sc(C(=O)O)cc12
144 to 146 °C	Cc1ccc(Br)cc1N1CCCS1(=O)=O
